Laboratory results published in patent US11926609B1, “6′-(3-chlorophenyl)-2′-ethoxy-3,4′-bipyridine-3′-carbonitrile as antimicrobial compounds” (KING FAISAL UNIVERSITY, priority 2023, dated 2024).

What was measured:
Assay type in all cases: cell-based
Aspergillus flavus = assay: Agar plate disc-diffusion, antifungal inhibition zone; details: Sabouraud's dextrose agar, 72 h, DMSO zone subtracted
Protocol: (§1) The agar plate disc-diffusion method was applied. Sterilized filter papers (6 mm in diameter) were wetted with 10 μL of a solution of 6′-(3-chlorophenyl)-2′-ethoxy-3,4′-bipyridine-3′-carbonitrile (4) to be tested, containing […], and the discs were allowed to air dry. The discs were then placed onto the surface of agar plates (nutrient agar for bacteria and Sabouraud's dextrose agar for fungi) seeded with the test organism. Each plate contained 15 mL of the agar medium, previously seeded with 0.2 mL of the broth culture of each organism pregrown for 18 hours. The plates were incubated at 37° C. for 48 h, and 72 h for fungi. The inhibition zones were measured in mm. Discs impregnated with DMSO were used as a control, and its inhibition zone was subtracted from the tested compound actual inhibition zone.
(§2) The results of the antimicrobial testing can be observed in Tables 1 and 2, below, using ciprofloxacin as a reference.

[1] = system: Chrysosporium keratinophilum; assay: as above; details: Sabouraud's dextrose agar, 72 h, DMSO zone subtracted
Protocol: as §1, §2

Bacillus Cereus = assay: Agar plate disc-diffusion, antibacterial inhibition zone; details: Gram positive, nutrient agar, 37° C., 48 h, DMSO zone subtracted
Protocol: as §1, §2

Pseudomonas aeruginosa = assay: as above; details: Gram negative, nutrient agar, 37° C., 48 h, DMSO zone subtracted
Protocol: as §1, §2

Escherichia coli = assay: as above; details: Gram negative, nutrient agar, 37° C., 48 h, DMSO zone subtracted
Protocol: as §1, §2

Staphylococcus aureus = assay: as above; details: Gram positive, nutrient agar, 37° C., 48 h, DMSO zone subtracted
Protocol: as §1, §2

[2] = A = concentration of comp. = 10,000 μL
[3] = B = concentration of comp. = 30.000 μL
[4] = C = concentration of comp. = 50,000 μL

CCOc1nc(-c2cccc(Cl)c2)cc(-c2cccnc2)c1C#N [compound 4, 6′-(3-chlorophenyl)-2′-ethoxy-3,4′-bipyridine-3′-carbonitrile]
inhibition zone, Aspergillus flavus, A (Aspergillus flavus; [2]): 21 mm
inhibition zone, Aspergillus flavus, B (Aspergillus flavus; [3]): 25 mm
inhibition zone, Aspergillus flavus, C (Aspergillus flavus; [4]): 36 mm
inhibition zone, Chrysosporium keratinophilum, A [1, 2]: 24 mm
inhibition zone, Chrysosporium keratinophilum, B [1, 3]: 26 mm
inhibition zone, Chrysosporium keratinophilum, C [1, 4]: 47 mm
inhibition zone, Bacillus Cereus, A (Bacillus Cereus; [2]): 26 mm
inhibition zone, Bacillus Cereus, B (Bacillus Cereus; [3]): 28 mm
inhibition zone, Bacillus Cereus, C (Bacillus Cereus; [4]): 40 mm
inhibition zone, Pseudomonas aeruginosa, A (Pseudomonas aeruginosa; [2]): 22 mm
inhibition zone, Pseudomonas aeruginosa, B (Pseudomonas aeruginosa; [3]): 29 mm
inhibition zone, Pseudomonas aeruginosa, C (Pseudomonas aeruginosa; [4]): 38 mm
inhibition zone, Escherichia coli, A (Escherichia coli; [2]): 26 mm
inhibition zone, Escherichia coli, B (Escherichia coli; [3]): 36 mm
inhibition zone, Escherichia coli, C (Escherichia coli; [4]): 48 mm
inhibition zone, Staphylococcus aureus, A (Staphylococcus aureus; [2]): 19 mm
inhibition zone, Staphylococcus aureus, B (Staphylococcus aureus; [3]): 26 mm
inhibition zone, Staphylococcus aureus, C (Staphylococcus aureus; [4]): 33 mm
